Measured values taken from PubChem BioAssay (NCI).
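GI50 = concentration required for 50% inhibition of growth. TGI: total growth inhibition.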

Key:
Experiment in all cases: NCI-60 cell line screen, 384-well format
SF-268 CNS = system: SF-268 CNS
ACHN renal = system: ACHN renal
SR leukemia = system: SR leukemia
SW-620 colon = system: SW-620 colon
HL-60(TB) leukemia = system: HL-60(TB) leukemia
OVCAR-3 ovarian = system: OVCAR-3 ovarian
UO-31 renal = system: UO-31 renal
PC-3 prostate = system: PC-3 prostate
CAKI-1 renal = system: CAKI-1 renal
MCF7 breast = system: MCF7 breast
OVCAR-8 ovarian = system: OVCAR-8 ovarian
HOP-92 NSCLC = system: HOP-92 NSCLC
BT-549 breast = system: BT-549 breast
NCI/ADR-RES ovarian = system: NCI/ADR-RES ovarian
SF-295 CNS = system: SF-295 CNS
NCI-H460 NSCLC = system: NCI-H460 NSCLC
HS 578T breast = system: HS 578T breast
IGROV1 ovarian = system: IGROV1 ovarian
HCC-2998 colon = system: HCC-2998 colon
OVCAR-4 ovarian = system: OVCAR-4 ovarian
MDA-MB-435 melanoma = system: MDA-MB-435 melanoma
RXF 393 renal = system: RXF 393 renal
EKVX NSCLC = system: EKVX NSCLC
MOLT-4 leukemia = system: MOLT-4 leukemia
MDA-MB-231 breast = system: MDA-MB-231 breast
NCI-H23 lung = system: NCI-H23 lung
A498 renal = system: A498 renal
HT29 colon = system: HT29 colon
RPMI-8226 leukemia = system: RPMI-8226 leukemia
OVCAR-5 ovarian = system: OVCAR-5 ovarian
T-47D breast = system: T-47D breast
SF-539 CNS = system: SF-539 CNS
CCRF-CEM leukemia = system: CCRF-CEM leukemia
KM12 colon = system: KM12 colon
NCI-H322M lung = system: NCI-H322M lung
TK-10 renal = system: TK-10 renal
HOP-62 NSCLC = system: HOP-62 NSCLC
SN12C renal = system: SN12C renal
SK-MEL-28 melanoma = system: SK-MEL-28 melanoma
SNB-19 CNS = system: SNB-19 CNS
SK-OV-3 ovarian = system: SK-OV-3 ovarian
MDA-MB-468 breast = system: MDA-MB-468 breast
NCI-H522 lung = system: NCI-H522 lung
SNB-75 CNS = system: SNB-75 CNS
NCI-H226 lung = system: NCI-H226 lung
HCT-116 colon = system: HCT-116 colon
A549 NSCLC = system: A549 NSCLC

Cc1ccc(Nc2nc(N)c(C(=O)c3ccc(C#N)cc3)s2)cc1
GI50 (SF-268 CNS): 45.8 nM
TGI (SF-268 CNS): 2520 nM
GI50 (ACHN renal): 72.5 nM
TGI (ACHN renal): 17800 nM
GI50 (SR leukemia): 18.1 nM
TGI (SR leukemia): 33.4 nM
GI50 (SW-620 colon): 37.3 nM
TGI (SW-620 colon): 13900 nM
GI50 (HL-60(TB) leukemia): 19.7 nM
TGI (HL-60(TB) leukemia): 34.7 nM
GI50 (OVCAR-3 ovarian): 170 nM
TGI (OVCAR-3 ovarian): 414 nM
GI50 (UO-31 renal): 69 nM
TGI (UO-31 renal): 1720 nM
GI50 (PC-3 prostate): 47.6 nM
TGI (PC-3 prostate): > 100000 nM
GI50 (CAKI-1 renal): 56.6 nM
TGI (CAKI-1 renal): 11200 nM
GI50 (MCF7 breast): 40.2 nM
TGI (MCF7 breast): 28200 nM
GI50 (OVCAR-8 ovarian): 86.7 nM
TGI (OVCAR-8 ovarian): 40300 nM
GI50 (HOP-92 NSCLC): 332 nM
TGI (HOP-92 NSCLC): 23300 nM
GI50 (BT-549 breast): 38.2 nM
TGI (BT-549 breast): 1310 nM
GI50 (NCI/ADR-RES ovarian): 28.7 nM
TGI (NCI/ADR-RES ovarian): 69.1 nM
GI50 (SF-295 CNS): 57.8 nM
TGI (SF-295 CNS): 298 nM
GI50 (NCI-H460 NSCLC): 178 nM
TGI (NCI-H460 NSCLC): 351 nM
GI50 (HS 578T breast): 22.1 nM
TGI (HS 578T breast): 47.1 nM
GI50 (IGROV1 ovarian): 73.2 nM
TGI (IGROV1 ovarian): 15300 nM
GI50 (HCC-2998 colon): 105 nM
TGI (HCC-2998 colon): 572 nM
GI50 (OVCAR-4 ovarian): 385 nM
TGI (OVCAR-4 ovarian): 17800 nM
GI50 (MDA-MB-435 melanoma): 41.9 nM
TGI (MDA-MB-435 melanoma): 151 nM
GI50 (RXF 393 renal): 23.3 nM
TGI (RXF 393 renal): 51.2 nM
GI50 (EKVX NSCLC): 58.4 nM
TGI (EKVX NSCLC): 51500 nM
GI50 (MOLT-4 leukemia): 128 nM
TGI (MOLT-4 leukemia): 256 nM
GI50 (MDA-MB-231 breast): 202 nM
TGI (MDA-MB-231 breast): 35800 nM
GI50 (NCI-H23 lung): 47.9 nM
TGI (NCI-H23 lung): 1470 nM
GI50 (A498 renal): 298 nM
TGI (A498 renal): 16400 nM
GI50 (HT29 colon): 34 nM
TGI (HT29 colon): 28200 nM
GI50 (RPMI-8226 leukemia): 30.9 nM
TGI (RPMI-8226 leukemia): 112 nM
GI50 (OVCAR-5 ovarian): 1460 nM
TGI (OVCAR-5 ovarian): 55100 nM
GI50 (T-47D breast): 743 nM
TGI (T-47D breast): 26300 nM
GI50 (SF-539 CNS): 188 nM
TGI (SF-539 CNS): 393 nM
GI50 (CCRF-CEM leukemia): 170 nM
TGI (CCRF-CEM leukemia): 310 nM
GI50 (KM12 colon): 42 nM
TGI (KM12 colon): 19900 nM
GI50 (NCI-H322M lung): 481 nM
TGI (NCI-H322M lung): 46400 nM
GI50 (TK-10 renal): 447 nM
TGI (TK-10 renal): 22200 nM
GI50 (HOP-62 NSCLC): 38.6 nM
TGI (HOP-62 NSCLC): 3610 nM
GI50 (SN12C renal): 348 nM
TGI (SN12C renal): 54600 nM
GI50 (SK-MEL-28 melanoma): 14600 nM
TGI (SK-MEL-28 melanoma): 74900 nM
GI50 (SNB-19 CNS): 325 nM
TGI (SNB-19 CNS): > 100000 nM
GI50 (SK-OV-3 ovarian): 247 nM
TGI (SK-OV-3 ovarian): 18300 nM
GI50 (MDA-MB-468 breast): 185 nM
TGI (MDA-MB-468 breast): 352 nM
GI50 (NCI-H522 lung): 121 nM
TGI (NCI-H522 lung): 292 nM
GI50 (SNB-75 CNS): 37 nM
TGI (SNB-75 CNS): 520 nM
GI50 (NCI-H226 lung): 39.3 nM
TGI (NCI-H226 lung): 2070 nM
GI50 (HCT-116 colon): 243 nM
TGI (HCT-116 colon): 976 nM
GI50 (A549 NSCLC): 247 nM
TGI (A549 NSCLC): > 100000 nM
